Data as given in patent US5981517A, “Androstene derivatives” (priority 1997, dated 1999).

Experiments:
granuloma / thymolysis = assay: Comparison of local effect and systemic side-effects (therapeutic index); assay type: in vivo, rat; conditions: granuloma relative potency / thymolysis relative potency
Description: The test compound was dissolved in acetone and aliquots of varying concentrations were injected into cotton pellets. The pellets were dried and then one pellet was implanted beneath the skin of each test rat. Six days later, the animals were sacrificed and the granulation tissue (granuloma) which formed in and around the implanted pellet was removed, dried and weighed. In addition, the thymi and adrenals were removed and weighed.
(§1) Several further studies were undertaken to determine the effects of a selected compound of the invention and prior art steroids on thymi weights in rats when the drugs were systemically administered. In each of these studies, male Sprague-Dawley rats were used. The test compounds were suspended in 0.5% CMC (carboxymethylcellulose) and injected subcutaneously once daily for three days. On the fifth day (48 hours following the last treatment), the animals were sacrificed and the thymi weights were recorded. Body weight gains were measured 24 hours after the last treatment.
The ED50 's calculated for the local cotton pellet granuloma assay and the TED40 's calculated on the basis of thymus inhibition testing as described above were used to arrive at relative potency and a therapeutic index for a representative species of the invention as compared to prior art steroids.

thymi = test system: thymi; parameters: species or system male Sprague-Dawley rats; conditions: rat, in vivo, sc
Description: as §1, with “treatment. From the test results, the TED40 's (thymolytic effective doses, that is, doses required to achieve 40% inhibition of thymi weight) and relative potencies of a representative compound of the invention and reference steroids were calculated. […] It is evident that the higher the inhibition of thymus activity at a given dose, the more toxic the compound is.” for “treatment.”

[1] = test system: granulation tissue (granuloma); assay type: in vivo, rat
Description: The test compound was dissolved in acetone and aliquots of varying concentrations were injected into cotton pellets. The pellets were dried and then one pellet was implanted beneath the skin of each test rat. Six days later, the animals were sacrificed and the granulation tissue (granuloma) which formed in and around the implanted pellet was removed, dried and weighed. In addition, the thymi and adrenals were removed and weighed. The ability of a compound to inhibit granuloma formation in this test is a direct indication of local anti-inflammatory activity; thus, the lower the weight of granulation tissue, the better the anti-inflammatory activity.

skin = assay: Skin weight test, 10 days of topical treatment in the rat; assay type: in vivo, Male Sprague-Dawley rats; conditions: rat, in vivo
Description: Male Sprague-Dawley rats, weighing about 210 g, were lightly anesthetized with ether, shaved and marked in three areas on each flank with intradermally injected blue ink. […] Treated control animals received daily topical administration of the vehicle (DMF) alone. Solvent and test compound solutions (10 μL) were applied once daily for 10 consecutive days, with […] necessary. On the eleventh day, the animals were sacrificed, their skins were removed and 16 mm diameter plugs were punched out from each area. The plugs were scraped carefully to remove subcutaneous fat and muscle, then they were blotted on filter paper and weighed. Skin atrophy is a known side effect associated with topically applied anti-inflammatory steroids.

[2] = test system: right ear of each mouse (croton oil challenge); assay: Ear edema test (croton oil, mice); assay type: in vivo; conditions: 6 h after croton oil challenge
Description: In treatment groups of mice, selected amounts of the test compound were dissolved in acetone containing 5% croton oil; then, 50 microliters of the solution were applied to the inner surface of the right ear of each mouse. A control group of mice was identically treated with vehicle only, i.e., 5% croton oil in acetone. Six hours after croton oil challenge, the thickness of each ear was measured.

CCCCC(=O)O[C@]1(C(=O)CO)[C@@H](C)C[C@H]2[C@@H]3CCC4=CC(=O)C=C[C@]4(C)[C@@]3(F)[C@@H](O)C[C@@]21C [Betamethasone 17-valerate, reference compound]
Therapeutic Index (a/b) (granuloma / thymolysis): 1.0 | Thymolysis, Relative Potency at ED40 Level (b) (thymi): 100

COC(=O)[C@@]1(OC(=O)C(Cl)Cl)[C@H](C)C[C@H]2[C@@H]3CCC4=CC(=O)C=C[C@]4(C)[C@@]3(F)[C@@H](O)C[C@@]21C [Compound I, methyl 17α-dichloroacetoxy-9α-fluoro-11β-hydroxy-16α-methylandrosta-1,4-dien-3-one-17β-carboxylate]
local anti-inflammatory activity (inhibition of granuloma formation) ([1]; cotton pellet, 6 days): significant local anti-inflammatory activity | systemic effect ([1]; rat, in vivo): relatively much lower systemic effect | Wet skin weight, Treated, Decrease (skin): 11.6% | Wet skin weight, Untreated, Decrease (skin): 11.2% | Therapeutic Index (a/b) (granuloma / thymolysis): 7.10 | Thymolysis, Relative Potency at ED40 Level (b) (thymi): 156 | inhibition of swelling ([2]; 10 μg/mL): 37.4% | inhibition of swelling ([2]; 100 μg/mL): 92.1%
